Measurements: paper PMC9201908, “Expansion of the Strigolactone Profluorescent Probes Repertory: The Right Probe for the Right Application” (Frontiers in Plant Science, 2022)
Entries after “also recorded” stand apart in the source; their conditions may differ.

Key:
[1] = tested on: rms1-10 pea mutant plants; experiment: Pea shoot-branching assay by direct application on the bud, rms1-10; format: in vivo, Pisum sativum; conditions: for Length of bud at node 3 /branch: direct application, rms1-10, 10 days after treatment, mean per replicate; for Bioactivity on shoot branching inhibition (bud development): result in words
Method: (§1) Pea (Pisum sativum) branching mutant plants used in this study were described previously (Rameau et al., [1997]). The SL biosynthesis rms1-10 (M3T-884) and SL response rms3-4 (M2T-30) mutants were obtained from the dwarf cv. Térèse. Plants were grown in a greenhouse under long days as described by Braun et al. ([2012]).
(§2) The compounds to be tested were applied directly to the axillary bud with a micropipette as 10 μL of a solution containing 0.1% of acetone with 2% of polyethylene glycol 1,450, 50% of ethanol, and 0.4% of DMSO. The control 0 is the treatment with 0.1% of DMSO without compound. A total of 24 plants were sown per treatment in trays (2 repetitions of 12 plants). The treatment was done 8 days after sowing, on the axillary bud at node 3. The branches at nodes 1–2 were removed to encourage the outgrowth of axillary buds at nodes above. Nodes were numbered acropetally from the first scale leaf as node 1 and cotyledonary node as node 0. Bud growth at node 3 was measured 10 days after treatment. Plants with damaged main shoot apex or showing a dead white treated bud were discarded from the analysis. The SL-deficient rms1-10 pea mutant was used for all experiments and WT Térèse as control. SL-perceived rms3-4 pea mutant was used to test that when bioactive, the analog acts via RMS3, and it was also used to check the putative toxicity of probes.

[2] = Stability of CoumarinAc and DiFMUAc (DMSO, PBS); format: physicochemical; conditions: in PBS and in DMSO (20°C), in comparison to CoumarinAc
Method: Dimethyl sulfoxide (DMSO) solution of the compound to be tested (1 mM) was incubated at 20°C in the HPLC vials. (±)-1-Indanol [Alfa Aesar, purity >97.5% (GC); 10 mM] was used as the internal standard. The samples were subjected to reverse-phase-ultra-performance liquid chromatography (RP-UPLC)-MS analyses by means of UPLC system equipped with a photo diode array (PDA) and a triple quadrupole detector (TQD) mass spectrometer (Acquity UPLC-TQD, Waters). RP-UPLC (HSS C18 column, 1.8 μm, 2.1 × 50 mm) with 0.1% (v/v) of formic acid in CH3CN and 0.1% (v/v) of formic acid in water (aq. FA, 0.1%, v/v, pH 2.8) were used as eluents [10% CH3CN, followed by linear gradient from 10 to 100% of CH3CN (4 min)] at a flow rate of 0.6 ml min^−1. The detection was done by PDA and with the TQD mass spectrometer operated in electrospray ionization-positive mode at 3.2 kV capillary voltage. To maximize the signal, the cone voltage and collision energy were optimized to 20 V and 12 eV, respectively. The collision gas used was argon at a pressure maintained near 4.5 10^−3 mBar. The relative quantity of the remaining (non-degraded) product was determined by integration comparison with the internal standard.

[3] = tested on: Arabidopsis SL-deficient mutant max3-11; conditions: ref de Saint Germain et al., 2016; cited from earlier work
[4] = biological target: T1, OsD14 (Oryza sativa subsp. japonica, UniProt Q10QA5); experiment: Enzymatic assay with profluorescent probes, OsD14; format: biochemical, Ozyza sativa; conditions: protein 0.33 μM, probe 10 μM
T1 construct: GST (N); made in house
T1 sequence (Q10QA5 with tags, fused parts or gaps): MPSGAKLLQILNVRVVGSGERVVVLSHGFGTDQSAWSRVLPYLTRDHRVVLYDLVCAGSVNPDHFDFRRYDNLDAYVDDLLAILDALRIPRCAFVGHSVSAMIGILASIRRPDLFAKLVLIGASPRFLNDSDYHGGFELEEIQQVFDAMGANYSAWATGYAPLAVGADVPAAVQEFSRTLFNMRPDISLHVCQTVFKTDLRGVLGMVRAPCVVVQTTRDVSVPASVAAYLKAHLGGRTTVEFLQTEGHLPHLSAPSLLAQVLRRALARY
Method: (§3) The enzyme activity was determined by measuring the release of the fluorescent intensities of each fluorophores resulting from the cleavage of profluorescent probes by RMS3, AtD14, OsD14, and DAD2 proteins in a SPARK M10 in a 96-well format (de Saint Germain et al., [2021a]). In the assay, using an Integra Viaflo 96 robot, 50 μL of a solution of protein at 0.33 μM in same buffer was added simultaneously in all 96 wells to 50 μL of profluorescent substrate solution (at varying concentrations, prepared from a 10 mM stock solution in 100% of DMSO) in PBS (100 mM of phosphate, pH 6.8, 150 mM of NaCl). After a lag time of 15 s, the formation of fluorophores was recorded over 3 h at 15 s intervals at 25°C. […] All experiments were repeated with three technical replicates. The fluorescence of each fluorophore was also determined for each measurement at the same time frame but in the absence of enzyme in order to determine the standard curves. For rapid enzymatic assays (Figure 8A, small panel), the solution of protein was added by the injector of the plate reader and then, the well was immediately read over 5 min with 1 s intervals. Same parameters were used to determine the fluorophore concentration.

[5] = tested on: Ppccd8 mutant plants; conditions: WT and Ppccd8; ref Hoffmann et al., 2014; Lopez-Obando et al., 2021; cited from earlier work
[6] = biological target: T2, AtD14 (Arabidopsis thaliana, UniProt Q9SQR3); experiment: Enzymatic assay with profluorescent probes, AtD14; format: biochemical; conditions: protein 0.33 μM, probe 10 μM
T2 construct: GST; made in house
T2 sequence (Q9SQR3 1-267): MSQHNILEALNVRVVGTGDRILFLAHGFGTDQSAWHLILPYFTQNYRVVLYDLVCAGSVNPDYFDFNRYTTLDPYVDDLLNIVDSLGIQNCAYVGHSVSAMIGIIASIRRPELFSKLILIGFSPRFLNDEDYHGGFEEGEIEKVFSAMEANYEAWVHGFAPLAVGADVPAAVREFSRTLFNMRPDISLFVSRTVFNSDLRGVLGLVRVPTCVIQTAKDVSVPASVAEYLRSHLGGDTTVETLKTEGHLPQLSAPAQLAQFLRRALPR
Method: as §3

[7] = biological target: T3, RMS3 protein (Pisum sativum, UniProt A0A109QYD3); experiment: Enzymatic assay with profluorescent probes, RMS3; format: biochemical; conditions: probe 10 μM
T3 construct: GST; made in house
T3 sequence (A0A109QYD3 1-267): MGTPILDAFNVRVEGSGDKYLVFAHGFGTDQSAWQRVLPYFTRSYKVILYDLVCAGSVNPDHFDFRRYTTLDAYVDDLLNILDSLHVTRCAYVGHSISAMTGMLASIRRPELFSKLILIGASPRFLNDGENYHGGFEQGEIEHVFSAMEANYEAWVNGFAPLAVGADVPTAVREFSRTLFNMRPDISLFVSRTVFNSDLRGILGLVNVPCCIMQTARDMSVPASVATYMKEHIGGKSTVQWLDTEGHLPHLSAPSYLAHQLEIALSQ

[8] = tested on: rms3-4 pea mutant plants; experiment: Pea shoot-branching assay by direct application on the bud, rms3-4; format: in vivo, Pisum sativum; conditions: rms3-4, 10 days after treatment
Method: as §1, §2

[9] = biological target: T4, DAD2 (Petunia hybrida, UniProt J9U5U9); experiment: Enzymatic assay with profluorescent probes, DAD2; format: biochemical; conditions: protein 0.33 μM, probe 10 μM
T4 construct: GST (N); made in house
T4 sequence (J9U5U9 1-267): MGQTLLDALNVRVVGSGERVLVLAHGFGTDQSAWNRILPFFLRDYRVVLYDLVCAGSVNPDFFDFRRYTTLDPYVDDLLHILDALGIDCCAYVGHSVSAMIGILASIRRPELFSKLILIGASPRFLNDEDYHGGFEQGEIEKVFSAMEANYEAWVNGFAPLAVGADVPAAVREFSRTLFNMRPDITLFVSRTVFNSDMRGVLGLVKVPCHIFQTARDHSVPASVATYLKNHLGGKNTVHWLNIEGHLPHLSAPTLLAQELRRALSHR
Method: as §3

[10] = tested on: Ppccd8 mutant plants; experiment: Physcomitrium patens bioassay, number of filaments in the dark; format: in vivo; conditions: 1 μM
Method: Assays on Physcomitrium patens were performed on plants grown in 24-well plates, starting from very small pieces of moss tissues as described by Guillory and Bonhomme ([2021]). As for pea rms1, the Ppccd8 SL synthesis mutant was used for assays, since the effect of the compounds was better seen in this mutant vs. wild type (WT; Lopez-Obando et al., [2021]). For each treatment, 24 plants were grown in PpNO3 medium [minimal medium described by Ashton et al., [1979]], dispatched in three different plates. Plants were grown for 2 weeks under control conditions, then treated with fluorophores or probes (all compounds used at 1 μM), before being placed vertically in the dark for 10 days. A single picture of each well was taken under an Axio Zoom microscope (Zeiss) with a dedicated program. Filaments were counted using ImageJ software (http://imagej.nih.gov/ij/) as described by Guillory and Bonhomme ([2021]). Twenty-four plants were tested in each treatment.

SMILES	Length of bud at node 3 /branch ([1]; 10 nM) [mm]	Length of bud at node 3 /branch ([1]; 100 nM) [mm]	Length of bud at node 3 /branch ([1]; 1,000 nM) [mm]	Effect on axillary bud ([1]; rms1-10, direct application, 100 nM)	Bioactivity on shoot branching inhibition (bud development) ([1]; rms1-10, direct application)	Stability [2]	Bioactivity in Arabidopsis [3]	Length of bud at node 3 /branch ([1]; 10,000 nM) [mm]	Cleavage of probe by OsD14 [4]	Effect on filament number [5]	Cleavage of probe by AtD14 [6]	Cleavage kinetics by RMS3 ([7]; RMS3 400 nM, 25°C, result in words)	Cleavage of probe by RMS3 ([7]; protein 0.33 μM)	Length of bud at node 3 /branch ([8]; 1,000 nM)	Length of bud at node 3 /branch ([8]; 5,000 nM)	Cleavage of probe by DAD2 [9]	Activity on filament number [10]
CC(=O)Oc1c(F)cc2c(C)cc(=O)oc2c1F [DiFMUAc]	23.71	19.75	22.17	significant effect	no effect	poorly stable											
CC1=C(C)C(Oc2c(F)cc3c(C)cc(=O)oc3c2F)OC1=O (racemic) [(±)-GC242]					among the most bioactive molecules		previously found bioactive	1.77	able to cleave	dose-dependent decrease in the filament number	able to cleave	Two-phase cleavage kinetics; also recorded: blocked at very low concentration; also recorded: two-phase kinetic	able to cleave	35.80	33.76	able to cleave	confirmed the previous activity
